# Read-outs that look alike come from different tables or passages of the source.
# Target: T1, human CRF receptors (Homo sapiens, UniProt P34998)
# T1 construct: expressed in transfected cells; stably transfected cells, used as membrane suspension
# T1 sequence (P34998 24-415): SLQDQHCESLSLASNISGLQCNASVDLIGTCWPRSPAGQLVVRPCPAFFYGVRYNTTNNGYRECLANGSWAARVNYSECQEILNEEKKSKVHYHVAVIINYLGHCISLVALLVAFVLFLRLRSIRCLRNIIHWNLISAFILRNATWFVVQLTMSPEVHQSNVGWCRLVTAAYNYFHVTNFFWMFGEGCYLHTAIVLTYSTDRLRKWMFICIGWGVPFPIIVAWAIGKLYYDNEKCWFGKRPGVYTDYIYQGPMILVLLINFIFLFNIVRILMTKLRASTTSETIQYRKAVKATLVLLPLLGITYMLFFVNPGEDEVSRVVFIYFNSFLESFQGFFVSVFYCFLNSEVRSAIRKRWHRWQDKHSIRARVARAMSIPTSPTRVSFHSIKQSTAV
# Experiment: CRF receptor radioligand binding assay (displacement of [125I]tyrosine-ovine CRF)
# Conditions: cells stably transfected with human CRF receptors, read-out: Ki (CRF receptor binding affinity)
# From the text: The effectiveness of a compound as a CRF receptor antagonist may be determined by various assay methods. Suitable CRF antagonists of this invention are capable of inhibiting the specific binding of CRF to its receptor and antagonizing activities associated with CRF. A compound of structure (I) may be assessed for activity as a CRF antagonist by one or more generally accepted assays for this purpose, including (but not limited to) the assays disclosed by DeSouza et al. (J. Neuroscience 7:88, 1987) and Battaglia et al. (Synapse 1:572, 1987). […] CRF receptor affinity may be determined by binding studies that measure the ability of a compound to inhibit the binding of a radiolabeled CRF (e.g., [^125I]tyrosine-CFR) to its receptor (e.g., receptors prepared from rat cerebral cortex membranes). The radioligand binding assay described by DeSouza et al. (supra, 1987) provides an assay for determining a compound's affinity for the CRF receptor. Such activity is typically calculated from the IC50 as the concentration of a compound necessary to displace 50% of the radiolabeled ligand from the receptor, and is reported as a “Ki” value calculated by the following equation: [formula]
# where L=radioligand and KD=affinity of radioligand for receptor (Cheng and Prusoff, Biochem. Pharmacol. 22:3099, 1973).
# With reference to CRF receptor binding affinities, CRF receptor antagonists of this invention have a Ki of less than 10 μM. […] As set forth in greater detail below, the Ki values of representative compounds of this invention were assayed by the methods set forth in Example 9.
# The compounds of this invention may be evaluated for binding activity to the CRF receptor by a standard radioligand binding assay as generally described by DeSouza et al. (J. Neurosci. 7:88-100, 1987). By utilizing various radiolabeled CRF ligands, the assay may be used to evaluate the binding activity of the compounds of the present invention with any CRF receptor subtype. Briefly, the binding assay involves the displacement of a radiolabeled CRF ligand from the CRF receptor.
# More specifically, the binding assay is performed in 1.5 ml Eppendorf tubes using approximately 1×10^6 cells per tube stably transfected with human CRF receptors. Each tube receives about 0.1 ml of assay buffer (e.g., Dulbecco's phosphate buffered saline, 10 mM magnesium chloride, 20 μM bacitracin) with or without unlabeled sauvagine, urotensin I or CRF (final concentration, 1 μM) to determine nonspecific binding, 0.1 ml of […] tyrosine-ovine CRF (final concentration ˜200 pM or approximately the KD as determined by Scatchard analysis) and 0.1 ml of a membrane suspension of cells containing the CRF receptor. The mixture is incubated for 2 hours at 22° C. followed by the separation of the bound and free radioligand by centrifugation. Following two washes of the pellets, the tubes are cut just above the pellet and monitored in a gamma counter for radioactivity at approximately 80% efficiency. All radioligand binding data may be analyzed using the non-linear least-square curve-fitting program LIGAND of Munson and Rodbard (Anal. Biochem. 107:220, […]).
Ki (more preferred compounds) [µM],Ki (preferred compounds) [µM],Structure (SMILES)
< 0.25,,Cc1cc2c3c(n1)c(-c1ccc(Cl)cc1Cl)nn3CCN2C1CCCCC1C (stereo not drawn) [I-2a-6]
< 0.25,< 1,Cc1cc2c3c(n1)c(-c1ccc(Cl)cc1Cl)nn3CCN2C(C)CCCC(C)C (stereo not drawn) [I-2a-9]
< 0.25,< 1,C=C1CN(C(CCC)CCC)c2nc(C)nc3c2c1cn3-c1ccc(Cl)cc1Cl [I-4b-1]
< 0.25,< 1,CCCC(CCC)N1CC(C)c2cn(-c3ccc(Cl)cc3Cl)c3nc(C)nc1c23 (stereo not drawn) [I-4b-2]

# More lines, now with the values behind:
Structure (SMILES),Ki (more preferred compounds) [µM],Ki (preferred compounds) [µM]
Cc1cc2c3c(n1)c(-c1ccc(Cl)cc1Cl)nn3CCN2C1CCCc2ccccc21 (stereo not drawn) [I-2a-8],< 0.25,< 1
CC[C@H]1Cn2nc(-c3ccc(C(F)(F)F)cc3OC)c3nc(C)cc(c32)N1Cc1ccc(F)cc1 [I-2a-76],< 0.25,
CC[C@H]1Cn2nc(-c3ccc(C(C)C)cc3C(F)(F)F)c3nc(C)cc(c32)N1CC(C)C [I-2a-173],,< 1
COc1cc(C(F)(F)F)ccc1-c1nn2c3c(cc(C)nc13)N(CCC(C)C)[C@@H](C)C2 [i-2a-92],,< 1

# — US6531475B1, “CRF receptor antagonists and methods relating thereto” (Neurocrine Biosciences, Inc., priority 1998, dated 2003)
